Laboratory results published in patent US20250222051A1, “MU[…] ADJUVANT TREATMENT OF TUMOR, AND PREPARATION METHOD AND APPLICATION THEREOF” (Changde Jizhi Biological Technology Co., Ltd, priority 2024, published 2025).

Experiments:
[1] = tested on: mouse H22 hepatoma cells; details: oxaliplatin 15 mg/kg tail vein once, products 0.45 g/kg intragastric
Method: The anti-tumor effect of the product of the disclosure on a Hepatoma-22 (H22) mouse model of live cancer is studied.
Positive control drug: oxaliplatin.
Animals and preparation of tumors are as follows. BALB/c male mice are adopted, weighing 18-22 g. The mice are fed in specific-pathogen free (SPF) grade animal house, with temperature of 20-25° C., relative humidity of 40%-70%, 6 mice per cage, illumination time of 12 h, regular and quantitative addition of feed, free drinking water, and daily replacement of padding.
Transplanted tumor cells: 10^6 mouse H22 hepatoma cells are injected into abdominal cavity for passage, and the hepatoma cells are collected after 7-10 days for subcutaneous inoculation.
Experimental methods of tumor passage preservation for in vivo tumor inhibition effect evaluation: H22 hepatoma mice are inoculated intraperitoneally and the ascites is taken for passage and preservation.
Tumor inoculation: H22 hepatocellular carcinoma bearing mice on the 10th day of ascites passage are taken, the mice are killed by cervical vertebra removal, the abdominal skin is disinfected, milky white ascites is absorbed with a sterile syringe, and the concentration of tumor cells is adjusted to 1×10^6 cells per milliliter (mL) with normal saline for injection. The right armpit skin of BALB/c mice is disinfected with alcohol cotton balls, 0.2 mL of the tumor cell suspension is inoculated subcutaneously, and the mice are raised routinely.
After 24 hours of the last administration, the mice are sacrificed by cervical dislocation, and the tumor tissues are stripped and weighed. The curative effect is evaluated by tumor weight inhibition rate (%), and analysis of variance (ANOVA) test is used for statistical comparison between groups.

[2] = tested on: Human lung cancer cells (A549); details: A549 transplanted tumor, oxaliplatin 15 mg/kg tail vein once, products 0.45 g/kg intragastric
From the text: (§1) Experimental animals: BLAB/c female nude mice, 6-7 weeks old, weighing 18-20 g.
(§2) Subcutaneous tumor cell inoculation in mice: Human lung cancer cells (A549), human ovarian cancer cells (Skov-3) and human cervical cancer epithelial cells (Hela) in logarithmic growth phase are taken and made into cell suspension (1×10^7 cells/mL) with phosphate buffered saline (PBS), each mouse is inoculated with 2×10^6 cells, the inoculation volume is 200 microliters (μL), and then inoculated subcutaneously in the armpit of BLAB/c nude mice. The selected tumor tissues are put into a glass homogenizer, ground with sterile physiological saline, filtered into a single cell suspension through a sieve, and the number of living cells is counted by trypan blue staining. Each nude mouse is inoculated with 200 μL cell suspension (including 1×10^6 cells) under its armpit.
(§3) Experimental grouping and methods: nude mice with the same tumor size are selected, and the nude mice are weighed and randomly divided into groups. […] The drug concentration and specific grouping are as follows. The model control group is intragastrically administered with 200 μL normal saline once a day, the mice are administered once on the second day after tumor inoculation. […] After 24 hours of the last administration, the tumor mass is taken out, the tumor weight is measured and the tumor inhibition rate is calculated.

[3] = tested on: human ovarian cancer cells (Skov-3); details: Skov-3 transplanted tumor, oxaliplatin 15 mg/kg tail vein once, products 0.45 g/kg intragastric
From the text: as §1, §2, §3

[4] = tested on: human cervical cancer epithelial cells (Hela); details: Hela transplanted tumor, oxaliplatin 15 mg/kg tail vein once, products 0.45 g/kg intragastric
From the text: as §1, §2, §3

Which results are given for `O=C1[O][Pt]2([NH][C@@H]3CCCC[C@H]3[NH]2)[O]C1=O` [Oxaliplatin, oxaliplatin]?
Tumor weight ([1]; H22 subcutaneous tumor, 24 hours after last administration): 1.14 ± 0.29 g; Inhibition rate (%) ([1]; H22 tumor weight inhibition rate): 50.22%; Weight Start ([1]; body weight of H22 tumor-bearing mice at start): 20.09 ± 1.08; Tumor weight ([2]; X ± SD): 0.98 ± 0.32 g; Inhibition rate (%) [2]: 58.25%; Tumor weight ([3]; X ± SD): 1.78 ± 0.33 g; Inhibition rate (%) [3]: 45.25%; Tumor weight ([4]; X ± SD): 1.78 ± 0.33 g; Inhibition rate (%) [4]: 45.25%
